Read-outs that look alike come from different tables or passages of the source.
How the values were obtained:
[1] = humans, previously determined; cited from earlier work
[2] = human volunteers, cited from earlier work
[3] = Maximal tolerated dose in humans; type: in vivo, human; conditions: oral
[4] = in vivo; cited from earlier work
[5] = in vivo
Source text: Inecalcitol is a synthetic derivative of calcitriol, the natural active metabolite of vitamin D3.

[6] = rats; cited from earlier work
[7] = in vivo; cited from earlier work; remark: listed apart in the source
[8] = cynomolgus monkey, in vivo, po
Method: Male cynomolgus monkey received a single oral administration of a high dose of inecalcitol (2 mg/kg) in the same volume (5 ml/kg) for each excipient. Blood samples were drawn at the time of administration (To) and 15, 30, 45, 60, 90 minutes, 3, 6, 9 and 24 hours later. Plasma aliquots were prepared on heparinized tubes and unchanged inecalcitol was specifically assayed by HPLC/MS/MS method.

## C=C1/C(=C\C=C2/CCC[C@]3(C)[C@@H]([C@H](C)CCCC(C)(C)O)CC[C@@H]23)C[C@@H](O)C[C@@H]1O [calcitriol, 1,25-dihydroxy-cholecalciferol]
[1]
  maximal tolerated dose: 45 μg once a week

## C=C1CC[C@H](O)C/C1=C/C=C1\CCC[C@]2(C)[C@@H]([C@H](C)CCCC(C)C)CC[C@@H]12 [cholecalciferol]
[2]; fasting state
  bioavailability from arachis oil capsules versus MCT capsules: about twice higher
[2]; given with a standard meal
  bioavailability from arachis oil capsules versus MCT capsules: no difference was observed

## C[C@H](CC#CC(C)(C)O)[C@H]1CC[C@@H]2/C(=C/C=C3C[C@@H](O)C[C@H](O)C3)CCC[C@@]21C [inecalcitol, 19-nor-9,10-seco-14βH-cholesta-5(Z),7(E)-dien-23-ino-1α,3β,25-triol-23-yne]
[3]
  maximal tolerated dose: 4 mg per day
[4]
  calcemic effects compared with calcitriol: markedly lower calcemic effects
[5]
  calcemic activity: very low calcemic activity

## C=C1/C(=C\C=C2/CCC[C@]3(C)[C@@H]([C@H](C)/C=C/C=C/C(O)(CC)CC)CC[C@@H]23)C[C@@H](O)C[C@@H]1O [seocalcitol]
[6]
  bioavailability, LCT- versus MCT-based formulations: no difference was observed
[7]
  bioavailability of complex system versus simple solutions in MCT or LCT: without any improvement in bioavailability

## Sunflower oil
[8]
  absorption of inecalcitol compared with MCT (in words): better absorbed
[8]; 2 mg/kg
  AUC0-24 h (%): 132%
  Cmax (−fold): 3.0 fold
  Tmax: 1.5 h

## elocalcitol
[1]
  maximal tolerated dose: 150 μg per day
